Results: patent US9562035B2, “Benzamide derivative useful as FASN inhibitors for the treatment of cancer” (Janssen Pharmaceutica NV, priority 2013, dated 2017)

Experiments:
[1] = target: T1, hFASN enzyme (full length) (Homo sapiens, UniProt P49327); assay: Fatty Acid Synthase (FASN) Inhibition Scintillation Proximity Assay; format: biochemical; details: for IC50: mean where tested more than once, ~ = standard error of pIC50 larger than 0.5; for inhibition at 10 µM: read-out: FASN % Effect @1E−05M
T1 construct: 10 μL hFASN enzyme (full length, 300 ng, purified in house); made in house
Summary of the method: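 Eight compound concentrations (0.01–30 μM) tested in pH 7.5 phosphate buffer with DTT; human full-length enzyme converted [3H]-acetyl-CoA plus malonyl-CoA, with NADPH, over 60 min at room temperature. Hydrophobic [3H]-palmitate detected by bead proximity scintillation imaging; control-normalised data fitted for IC50/pIC50.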

[2] = target: T2, FASN Keto-reductase Domain (Homo sapiens, UniProt P49327); assay: Fatty Acid Synthase Keto-Reductase Domain (FASN KR) Inhibition; format: biochemical; details: mean where tested more than once; read-out: FASN K-R Domain pIC50 (converted)
T2 construct: 10 μL hFASN enzyme (full length, 300 ng, purified in house) and 360 μM NADPH; made in house
Summary of the method: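 Keto-reductase activity followed as NADPH consumption (A340 drop between 0 and 20 min, room temperature) using in-house full-length hFASN, 360 μM NADPH and ethyl acetoacetate substrate (180 mM stock), pH 7.5 phosphate buffer.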

A2780 ovarian cells [3] = assay: A2780 Ovarian Cell Proliferation Assay in Lipid Reduced Medium, without Palmitate; format: cell-based; details: Homo sapiens, A2780; lipid reduced medium, without palmitate, 96 h, MTT; read-out: Proliferation A2780 w/o Palmitate pIC50 (converted)
Summary of the method: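 A2780 cells were seeded in 10% FCS medium and switched next day to 10% lipid-reduced serum without palmitate. Compounds at 0.01–30 μM were added with 0.2% DMSO, 0.2% fatty-acid-free BSA and 0.25% ethanol final. After 96 h, MTT absorbance at 544 nm was normalized to plate controls, and IC50/pIC50 came from a 4-parameter logistic fit.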

A2780 ovarian cells [4] = assay: A2780 Ovarian Cell Proliferation Assay in Lipid Reduced Medium, with Palmitate (control); format: cell-based; details: Homo sapiens, A2780; lipid reduced medium, 25 μM palmitate, 96 h, MTT; read-out: Proliferation A2780 with Palmitate pIC50 (converted)
Summary of the method: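 Read-out was MTT absorbance at 544 nm after 96 h at 37 °C. Cells grown overnight in RPMI1640/10% FCS were moved to 10% lipid-reduced serum with compound plus palmitate (final 25 μM, 0.2% fatty-acid-free BSA, 0.2% DMSO). IC50 came from least-squares curve fitting, expressed as −log(IC50).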

T1 sequence (P49327 whole entry): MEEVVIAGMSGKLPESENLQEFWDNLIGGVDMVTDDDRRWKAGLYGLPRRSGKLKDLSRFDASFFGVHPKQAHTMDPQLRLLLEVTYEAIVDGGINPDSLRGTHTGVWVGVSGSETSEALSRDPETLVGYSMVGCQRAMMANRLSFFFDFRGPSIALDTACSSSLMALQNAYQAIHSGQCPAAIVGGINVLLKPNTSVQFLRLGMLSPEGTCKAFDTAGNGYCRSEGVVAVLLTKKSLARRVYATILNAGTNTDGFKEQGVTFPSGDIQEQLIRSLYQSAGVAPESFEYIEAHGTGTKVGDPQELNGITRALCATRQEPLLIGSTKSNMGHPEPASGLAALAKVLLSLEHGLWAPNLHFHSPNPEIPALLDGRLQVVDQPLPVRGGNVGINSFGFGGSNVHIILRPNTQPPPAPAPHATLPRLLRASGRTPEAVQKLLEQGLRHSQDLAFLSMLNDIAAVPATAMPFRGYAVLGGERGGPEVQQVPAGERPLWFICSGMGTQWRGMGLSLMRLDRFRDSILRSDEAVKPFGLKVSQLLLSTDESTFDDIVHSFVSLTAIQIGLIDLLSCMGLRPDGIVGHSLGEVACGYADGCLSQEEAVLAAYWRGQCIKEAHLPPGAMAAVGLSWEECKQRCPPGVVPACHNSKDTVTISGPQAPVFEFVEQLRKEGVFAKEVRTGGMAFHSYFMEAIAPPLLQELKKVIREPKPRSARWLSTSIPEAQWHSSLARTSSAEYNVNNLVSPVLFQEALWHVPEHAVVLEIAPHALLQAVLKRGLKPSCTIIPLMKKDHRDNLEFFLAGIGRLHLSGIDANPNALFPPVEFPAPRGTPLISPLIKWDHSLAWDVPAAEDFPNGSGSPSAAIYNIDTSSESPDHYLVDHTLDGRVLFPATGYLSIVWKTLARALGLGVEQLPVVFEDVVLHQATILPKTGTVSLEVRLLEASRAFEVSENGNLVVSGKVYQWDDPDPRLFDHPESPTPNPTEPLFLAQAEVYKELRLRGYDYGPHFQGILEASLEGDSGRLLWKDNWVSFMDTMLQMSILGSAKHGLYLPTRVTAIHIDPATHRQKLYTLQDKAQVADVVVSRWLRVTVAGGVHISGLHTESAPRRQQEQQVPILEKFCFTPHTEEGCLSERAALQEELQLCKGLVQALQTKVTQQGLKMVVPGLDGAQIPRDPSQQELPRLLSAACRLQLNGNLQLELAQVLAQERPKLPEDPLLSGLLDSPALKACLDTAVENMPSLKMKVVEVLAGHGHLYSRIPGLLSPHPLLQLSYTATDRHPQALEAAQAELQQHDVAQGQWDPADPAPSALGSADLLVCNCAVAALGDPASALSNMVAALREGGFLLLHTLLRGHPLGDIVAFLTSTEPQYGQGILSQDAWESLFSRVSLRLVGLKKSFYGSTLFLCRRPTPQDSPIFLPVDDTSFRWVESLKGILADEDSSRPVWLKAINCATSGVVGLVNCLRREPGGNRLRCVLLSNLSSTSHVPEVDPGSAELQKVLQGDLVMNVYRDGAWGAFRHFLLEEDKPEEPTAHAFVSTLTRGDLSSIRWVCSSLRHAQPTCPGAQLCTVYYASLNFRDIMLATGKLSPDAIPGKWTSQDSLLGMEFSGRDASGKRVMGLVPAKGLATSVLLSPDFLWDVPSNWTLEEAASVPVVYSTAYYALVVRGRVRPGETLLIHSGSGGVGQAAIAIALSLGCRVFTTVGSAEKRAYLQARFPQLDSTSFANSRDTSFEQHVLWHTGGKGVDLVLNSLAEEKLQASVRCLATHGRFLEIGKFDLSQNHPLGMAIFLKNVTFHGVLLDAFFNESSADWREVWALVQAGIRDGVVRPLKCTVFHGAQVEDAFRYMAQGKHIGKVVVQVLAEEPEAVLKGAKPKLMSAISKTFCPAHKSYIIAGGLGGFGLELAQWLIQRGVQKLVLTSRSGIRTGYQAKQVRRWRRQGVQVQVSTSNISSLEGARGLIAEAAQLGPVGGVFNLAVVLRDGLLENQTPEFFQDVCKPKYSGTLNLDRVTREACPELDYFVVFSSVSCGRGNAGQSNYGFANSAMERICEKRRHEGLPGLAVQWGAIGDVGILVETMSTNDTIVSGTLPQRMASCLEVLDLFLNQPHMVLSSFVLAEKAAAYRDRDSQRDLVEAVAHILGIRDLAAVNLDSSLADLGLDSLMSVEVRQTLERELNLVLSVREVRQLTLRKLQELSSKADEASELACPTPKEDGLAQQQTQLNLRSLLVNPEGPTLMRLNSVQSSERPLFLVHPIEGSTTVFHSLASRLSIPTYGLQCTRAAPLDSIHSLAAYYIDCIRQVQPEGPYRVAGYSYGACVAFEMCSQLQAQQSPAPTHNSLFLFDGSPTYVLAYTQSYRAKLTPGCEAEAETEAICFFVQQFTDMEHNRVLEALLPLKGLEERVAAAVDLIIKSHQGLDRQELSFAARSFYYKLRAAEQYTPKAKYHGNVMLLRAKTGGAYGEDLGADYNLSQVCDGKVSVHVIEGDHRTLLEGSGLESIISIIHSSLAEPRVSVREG
T2 sequence (P49327 whole entry, the tested form may be a part): as the sequence (P49327 whole entry) above

## CC(C)Nc1ccc(C(=O)Nc2cc(C(=O)N3CCC(c4ccc(-c5ccnc6ccccc56)cc4)CC3)ccc2Cl)cn1 [Compound 68, N-(2-chloro-5-(4-(4-(quinolin-4-yl)phenyl)piperidine-1-carbonyl)phenyl)-6-(isopropylamino)nicotinamide]
[1]
  IC50: 31.6 nM
  inhibition at 10 µM: 118%
[2]
  IC50: 64.6 nM
A2780 ovarian cells [3]
  IC50: 195 nM
A2780 ovarian cells [4]
  IC50: 5.25 µM

## CC(C)Nc1ccc(C(=O)Nc2cc(C(=O)N3CCC(c4ccc(-c5cnn(C)c5)cc4)CC3)ccc2Cl)cn1 [Compound 69, N-(2-chloro-5-(4-(4-(1-methyl-1H-pyrazol-4-yl)phenyl)piperidine-1-carbonyl)phenyl)-6-(isopropylamino)nicotinamide]
[1]
  IC50: 28.8 nM
  inhibition at 10 µM: 98%
[2]
  IC50: 41.7 nM
A2780 ovarian cells [3]
  IC50: 75.9 nM
A2780 ovarian cells [4]
  IC50: 7.59 µM

## CC(C)Nc1ccc(C(=O)Nc2cc(C(=O)N3CCC(c4ccc(-c5ccnn5C)cc4)CC3)ccc2Cl)cn1 [Compound 70, N-(2-chloro-5-(4-(4-(1-methyl-1H-pyrazol-5-yl)phenyl)piperidine-1-carbonyl)phenyl)-6-(isopropylamino)nicotinamide]
[1]
  IC50: 56.2 nM
  inhibition at 10 µM: 109%
[2]
  IC50: 245 nM
A2780 ovarian cells [3]
  IC50: 437 nM
A2780 ovarian cells [4]
  IC50: 3.55 µM

## CC(C)Nc1ccc(C(=O)Nc2cc(C(=O)N3CCC(c4ccc(-c5cccnc5)cc4)CC3)ccc2Cl)cn1 [Compound 71, N-(2-chloro-5-(4-(4-(pyridin-3-yl)phenyl)piperidine-1-carbonyl)phenyl)-6-(isopropylamino)nicotinamide]
[1]
  IC50: 47.9 nM
  inhibition at 10 µM: 101%
[2]
  IC50: 234 nM
A2780 ovarian cells [3]
  IC50: 447 nM
A2780 ovarian cells [4]
  IC50: 5.25 µM

## CC(C)Nc1ccc(C(=O)Nc2cc(C(=O)N3CCC(c4ccc(-c5ccncc5)cc4)CC3)ccc2Cl)cn1 [Compound 72, N-(2-chloro-5-(4-(4-(pyridin-4-yl)phenyl)piperidine-1-carbonyl)phenyl)-6-(isopropylamino)nicotinamide]
[1]
  IC50: 39.8 nM
  inhibition at 10 µM: 110%
[2]
  IC50: 251 nM
A2780 ovarian cells [3]
  IC50: 513 nM
A2780 ovarian cells [4]
  IC50: 2.63 µM

## Cc1ccc(C(=O)N2CC(c3ccc(-c4cnn(C)c4)cc3)C2)cc1NC(=O)c1ccc2ccccc2n1 [Compound 79, N-(2-methyl-5-(3-(4-(1-methyl-1H-pyrazol-4-yl)phenyl)azetidine-1-carbonyl)phenyl)quinoline-2-carboxamide]
[1]
  IC50: 93.3 nM
  inhibition at 10 µM: 108%
[2]
  IC50: 182 nM
A2780 ovarian cells [3]
  IC50: 525 nM
A2780 ovarian cells [4]
  IC50: ~9.55 µM

## Cc1ccc(C(=O)N2CC(c3ccc(-c4cnn(C)c4)cc3)C2)cc1NC(=O)c1ccccn1 [Compound 80, N-(2-methyl-5-(3-(4-(1-methyl-1H-pyrazol-4-yl)phenyl)azetidine-1-carbonyl)phenyl)picolinamide]
[1]
  IC50: 51.3 nM
  inhibition at 10 µM: 110%
[2]
  IC50: 234 nM
A2780 ovarian cells [3]
  IC50: 692 nM
A2780 ovarian cells [4]
  IC50: > 15.1 µM

## Cc1ccc(C(=O)N2CC(c3ccc(-c4cnn(C)c4)cc3)C2)cc1NC(=O)c1ccccc1F [Compound 82, 2-fluoro-N-(2-methyl-5-(3-(4-(1-methyl-1H-pyrazol-4-yl)phenyl)azetidine-1-carbonyl)phenyl)benzamide]
[1]
  IC50: 22.9 nM
  inhibition at 10 µM: 98%
[2]
  IC50: 85.1 nM
A2780 ovarian cells [3]
  IC50: 95.5 nM
A2780 ovarian cells [4]
  IC50: > 10 µM

## Cc1ccc(C(=O)N2CC(c3ccc(-c4cnn(C)c4)cc3)C2)cc1NC(=O)c1cccs1 [Compound 84, N-(2-methyl-5-(3-(4-(1-methyl-1H-pyrazol-4-yl)phenyl)azetidine-1-carbonyl)phenyl)thiophene-2-carboxamide]
[1]
  IC50: 37.2 nM
  inhibition at 10 µM: 103%
[2]
  IC50: 162 nM
A2780 ovarian cells [3]
  IC50: 234 nM
A2780 ovarian cells [4]
  IC50: > 10 µM

## Cc1ccc(C(=O)N2CCC(c3ccc(-c4cnn(C)c4)cc3)CC2)cc1NC(=O)C1CCCCC1 [Compound 86, N-(2-methyl-5-(4-(4-(1-methyl-1H-pyrazol-4-yl)phenyl)piperidine-1-carbonyl)phenyl)cyclohexanecarboxamide]
[1]
  IC50: 22.4 nM
  inhibition at 10 µM: 106%
[2]
  IC50: 75.9 nM
A2780 ovarian cells [3]
  IC50: 182 nM
A2780 ovarian cells [4]
  IC50: > 10 µM

## Cc1ccc(C(=O)N2CCC(c3ccc(-c4cnn(C)c4)cc3)CC2)cc1NC(=O)C(C)(C)C [Compound 87, N-(2-methyl-5-(4-(4-(1-methyl-1H-pyrazol-4-yl)phenyl)piperidine-1-carbonyl)phenyl)pivalamide]
[1]
  IC50: 182 nM
  inhibition at 10 µM: 96%
[2]
  IC50: 288 nM
A2780 ovarian cells [3]
  IC50: 575 nM
A2780 ovarian cells [4]
  IC50: > 10 µM

## Cc1ccc(C(=O)N2CCC(c3ccc(-c4cnn(C)c4)cc3)CC2)cc1NC(=O)C1CCCC1 [Compound 88, N-(2-methyl-5-(4-(4-(1-methyl-1H-pyrazol-4-yl)phenyl)piperidine-1-carbonyl)phenyl)cyclopentanecarboxamide]
[1]
  IC50: 35.5 nM
  inhibition at 10 µM: 100%
[2]
  IC50: 126 nM
A2780 ovarian cells [3]
  IC50: 209 nM
A2780 ovarian cells [4]
  IC50: > 10 µM

## Cc1ccc(C(=O)N2CCC(c3ccc(-c4cnn(C)c4)cc3)CC2)cc1NC(=O)c1ccc(N(C)C(C)C)nc1 [Compound 92, 6-(Isopropyl(methyl)amino)-N-(2-methyl-5-(4-(4-(1-methyl-1H-pyrazol-4-yl)phenyl)piperidine-1-carbonyl)phenyl)nicotinamide]
[1]
  IC50: 16.2 nM
  inhibition at 10 µM: 100%
[2]
  IC50: 30.9 nM
A2780 ovarian cells [3]
  IC50: 9.12 nM
A2780 ovarian cells [4]
  IC50: 6.03 µM

## COc1ccc(C(=O)Nc2cc(C(=O)N3CCC(c4ccc(-c5cnn(C)c5)cc4)CC3)ccc2C)cc1 [Compound 93, 4-methoxy-N-(2-methyl-5-(4-(4-(1-methyl-1H-pyrazol-4-yl)phenyl)piperidine-1-carbonyl)phenyl)benzamide]
[1]
  IC50: 17.4 nM
  inhibition at 10 µM: 100%
[2]
  IC50: 29.5 nM
A2780 ovarian cells [3]
  IC50: 95.5 nM
A2780 ovarian cells [4]
  IC50: > 10 µM

## COc1cccc(C(=O)Nc2cc(C(=O)N3CCC(c4ccc(-c5cnn(C)c5)cc4)CC3)ccc2C)c1 [Compound 94, 3-methoxy-N-(2-methyl-5-(4-(4-(1-methyl-1H-pyrazol-4-yl)phenyl)piperidine-1-carbonyl)phenyl)benzamide]
[1]
  IC50: 20.4 nM
  inhibition at 10 µM: 100%
[2]
  IC50: 83.2 nM
A2780 ovarian cells [3]
  IC50: 148 nM
A2780 ovarian cells [4]
  IC50: 7.59 µM

## Cc1ccc(C(=O)N2CCC(c3ccc(-c4cnn(C)c4)cc3)CC2)cc1NC(=O)c1cccc(Cl)c1 [Compound 95, 3-chloro-N-(2-methyl-5-(4-(4-(1-methyl-1H-pyrazol-4-yl)phenyl)piperidine-1-carbonyl)phenyl)benzamide]
[1]
  IC50: 26.3 nM
  inhibition at 10 µM: 105%
[2]
  IC50: 151 nM
A2780 ovarian cells [3]
  IC50: 263 nM
A2780 ovarian cells [4]
  IC50: 3.47 µM

## Cc1ccc(C(=O)N2CCC(c3ccc(-c4cnn(C)c4)cc3)CC2)cc1NC(=O)c1ccccc1Cl [Compound 96, 2-chloro-N-(2-methyl-5-(4-(4-(1-methyl-1H-pyrazol-4-yl)phenyl)piperidine-1-carbonyl)phenyl)benzamide]
[1]
  IC50: 31.6 nM
  inhibition at 10 µM: 103%
[2]
  IC50: 155 nM
A2780 ovarian cells [3]
  IC50: 145 nM
A2780 ovarian cells [4]
  IC50: > 10 µM

## Cc1ccc(C(=O)N2CC(c3ccc(-c4cnn(C)c4)cc3)C2)cc1NC(=O)c1cccc(C(F)(F)F)n1 [Compound 97, N-(2-methyl-5-(3-(4-(1-methyl-1H-pyrazol-4-yl)phenyl)azetidine-1-carbonyl)phenyl)-6-(trifluoromethyl)picolinamide]
[1]
  IC50: 170 nM
  inhibition at 10 µM: 89%
[2]
  IC50: 324 nM
A2780 ovarian cells [3]
  IC50: 501 nM
A2780 ovarian cells [4]
  IC50: 6.03 µM

## Cc1cc(C(=O)Nc2cc(C(=O)N3CCC(c4ccc(-c5cnn(C)c5)cc4)CC3)ccc2C)ccn1 [Compound 98, 2-methyl-N-(2-methyl-5-(4-(4-(1-methyl-1H-pyrazol-4-yl)phenyl)piperidine-1-carbonyl)phenyl)isonicotinamide]
[1]
  IC50: 30.2 nM
  inhibition at 10 µM: 102%
[2]
  IC50: 91.2 nM
A2780 ovarian cells [3]
  IC50: 46.8 nM
A2780 ovarian cells [4]
  IC50: 1.2 µM

## Cc1ccc(C(=O)N2CCC(c3ccc(-c4cnn(C)c4)cc3)CC2)cc1NC(=O)c1sccc1Cl [Compound 99, 3-chloro-N-(2-methyl-5-(4-(4-(1-methyl-1H-pyrazol-4-yl)phenyl)piperidine-1-carbonyl)phenyl)thiophene-2-carboxamide]
[1]
  IC50: 107 nM
  inhibition at 10 µM: 92%
[2]
  IC50: 295 nM
A2780 ovarian cells [3]
  IC50: 389 nM
A2780 ovarian cells [4]
  IC50: 6.31 µM

## Cc1ccc(C(=O)N2CCC(c3ccc(-c4cnn(C)c4)cc3)CC2)cc1NC(=O)c1cccnc1Cl [Compound 101, 2-Chloro-N-(2-methyl-5-(4-(4-(1-methyl-1H-pyrazol-4-yl)phenyl)piperidine-1-carbonyl)phenyl)nicotinamide]
[1]
  IC50: 47.9 nM
  inhibition at 10 µM: 105%
[2]
  IC50: 155 nM
A2780 ovarian cells [3]
  IC50: 91.2 nM
A2780 ovarian cells [4]
  IC50: > 10 µM
